Measured values from patent US11040981B2, “Pyrrolotriazine compounds and methods of inhibiting TAM kinases” (Syros Pharmaceuticals, Inc., priority 2017, dated 2021).

Legend:
AXL = biological target: T1, AXL (Homo sapiens, UniProt P30530); assay: TR-FRET kinase activity assay, AXL; type: biochemical; settings: ATP at Km, 60 minutes
T1 sequence (P30530 26-894): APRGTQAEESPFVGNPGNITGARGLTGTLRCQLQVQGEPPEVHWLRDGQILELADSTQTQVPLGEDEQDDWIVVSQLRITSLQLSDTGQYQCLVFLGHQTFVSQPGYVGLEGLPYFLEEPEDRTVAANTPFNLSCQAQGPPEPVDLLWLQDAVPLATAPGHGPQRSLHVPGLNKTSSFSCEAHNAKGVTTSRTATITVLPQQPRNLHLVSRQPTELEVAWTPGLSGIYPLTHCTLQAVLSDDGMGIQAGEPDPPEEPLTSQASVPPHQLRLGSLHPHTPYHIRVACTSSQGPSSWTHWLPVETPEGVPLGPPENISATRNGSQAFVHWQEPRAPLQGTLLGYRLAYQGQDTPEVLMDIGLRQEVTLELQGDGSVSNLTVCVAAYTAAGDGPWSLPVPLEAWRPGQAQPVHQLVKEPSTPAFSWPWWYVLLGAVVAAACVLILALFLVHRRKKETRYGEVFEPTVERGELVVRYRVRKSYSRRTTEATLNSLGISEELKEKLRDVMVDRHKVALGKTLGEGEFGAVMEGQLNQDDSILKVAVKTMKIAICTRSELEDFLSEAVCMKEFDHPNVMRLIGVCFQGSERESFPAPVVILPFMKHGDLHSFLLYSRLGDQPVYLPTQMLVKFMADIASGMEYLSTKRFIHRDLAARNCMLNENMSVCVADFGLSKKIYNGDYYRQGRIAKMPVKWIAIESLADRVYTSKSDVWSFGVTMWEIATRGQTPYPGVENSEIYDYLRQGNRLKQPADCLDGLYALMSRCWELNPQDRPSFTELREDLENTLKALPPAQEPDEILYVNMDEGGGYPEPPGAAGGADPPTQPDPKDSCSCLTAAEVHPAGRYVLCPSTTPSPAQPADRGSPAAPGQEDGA
Procedure, shortened: (§1)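 Each kinase phosphorylated a fluorescent-labelled tyrosine peptide in 50 mM HEPES pH 7.5, 10 mM MgCl2, 1 mM EGTA, 0.01% Brij 35, 1 mM DTT at RT, with ATP at Km for that enzyme. After 60 min, EDTA quench and Eu-anti-phosphotyrosine antibody (30 min, dark); IC50 from TR-FRET decrease.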

MERTK = biological target: T2, MERTK (Homo sapiens, UniProt Q12866); assay: TR-FRET kinase activity assay, MERTK; type: biochemical; settings: for IC50: TR-FRET activity assay, ATP at Km, 60 minutes, read-out: Mer IC50; for FLT3/Mer ratio (FLT3 IC50/Mer IC50): ratio calculated as FLT3 IC50/Mer IC50
T2 sequence (Q12866 21-999): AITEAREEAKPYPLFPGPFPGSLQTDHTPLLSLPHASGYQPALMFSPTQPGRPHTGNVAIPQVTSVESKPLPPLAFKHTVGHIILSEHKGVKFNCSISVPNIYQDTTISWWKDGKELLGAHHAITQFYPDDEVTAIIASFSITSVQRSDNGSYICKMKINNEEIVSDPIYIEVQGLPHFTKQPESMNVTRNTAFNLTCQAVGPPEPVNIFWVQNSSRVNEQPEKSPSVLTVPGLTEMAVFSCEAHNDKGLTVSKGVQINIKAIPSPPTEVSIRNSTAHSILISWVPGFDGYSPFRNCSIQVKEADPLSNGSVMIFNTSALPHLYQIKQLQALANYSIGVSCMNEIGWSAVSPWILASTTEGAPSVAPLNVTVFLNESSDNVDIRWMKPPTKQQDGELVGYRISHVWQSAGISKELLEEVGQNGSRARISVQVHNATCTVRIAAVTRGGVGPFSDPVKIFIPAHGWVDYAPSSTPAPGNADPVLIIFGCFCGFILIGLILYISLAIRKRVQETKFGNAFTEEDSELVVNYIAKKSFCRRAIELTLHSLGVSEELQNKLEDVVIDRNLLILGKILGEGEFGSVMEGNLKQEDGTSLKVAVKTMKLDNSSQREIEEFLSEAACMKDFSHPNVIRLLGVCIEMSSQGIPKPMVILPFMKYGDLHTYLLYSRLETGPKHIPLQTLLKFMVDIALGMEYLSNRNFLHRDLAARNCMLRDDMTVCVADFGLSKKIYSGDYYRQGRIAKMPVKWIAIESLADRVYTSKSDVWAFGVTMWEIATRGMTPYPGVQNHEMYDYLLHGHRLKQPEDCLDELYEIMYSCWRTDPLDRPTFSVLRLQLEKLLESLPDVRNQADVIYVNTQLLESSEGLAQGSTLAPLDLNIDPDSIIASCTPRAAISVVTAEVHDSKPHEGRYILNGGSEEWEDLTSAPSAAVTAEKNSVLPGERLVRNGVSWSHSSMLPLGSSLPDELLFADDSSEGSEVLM
Procedure, shortened: as §1

Row | Compound | IC50 (AXL) [nM] | IC50 (MERTK) [nM] | FLT3/Mer ratio (FLT3 IC50/Mer IC50) (MERTK)
1 | COC[C@H](C)Nc1ncc2c(-c3ccnc(N4CCOC(C(C)(C)O)C4)c3)cc([C@H]3CC[C@H](O)CC3)n2n1 (stereo partly drawn) [Compound 534] | ≤ 100 | ≤ 100 | +++ (“+++” represents a ratio of >100)
2 | C[C@H](Nc1ncc2c(-c3cnn(C(C)(C)C(=O)N4CCOCC4)c3)cc([C@H]3CC[C@H](O)CC3)n2n1)C(F)(F)F [Compound 537] | ≤ 100 | ≤ 100 | +++ (“+++” represents a ratio of >100)
3 | COCC(C)Nc1ncc2c(-c3ccc4cc[nH]c4c3)cc(C3CCC(O)CC3)n2n1 (stereo not drawn) [Compound 538] | 100 to 1000 | ≤ 100 | +++ (“+++” represents a ratio of >100)
4 | COCC(C)Nc1ncc2c(-c3ccc4[nH]ccc4c3)cc(C3CCC(O)CC3)n2n1 (stereo not drawn) [Compound 539] | 100 to 1000 | ≤ 100 | +++ (“+++” represents a ratio of >100)
5 | C[C@@H](CC(F)(F)F)Nc1ncc2c(-c3ccc([S@](C)(=N)=O)nc3)cc([C@H]3CC[C@H](O)CC3)n2n1 [Compound 540] | ≤ 100 | ≤ 100 | +++ (“+++” represents a ratio of >100)
6 | C[C@@H](CC(F)(F)F)Nc1ncc2c(-c3ccc([S@@](C)(=N)=O)nc3)cc([C@H]3CC[C@H](O)CC3)n2n1 [Compound 541] | ≤ 100 | ≤ 100 | ++ (“++” represents a ratio of between 10 and 100)
7 | CC(Nc1ncc2c(-c3cnn(C4COC4)c3)cc(C3CCC(O)CC3)n2n1)c1ccccn1 (stereo not drawn) [Compound 544] | 1000 to 10000 | 100 to 1000 | ++ (“++” represents a ratio of between 10 and 100)
8 | COC[C@H](C)Nc1ncc2c(-c3ccnc(N4CCOCC4)c3)cc([C@H]3CC[C@@H](O)CC3)n2n1 [Compound 546] | ≤ 100 | ≤ 100 | +++ (“+++” represents a ratio of >100)
9 | COC[C@H](C)Nc1ncc2c(-c3cnn(C(C)(C)C(=O)N4CCOCC4)c3)cc([C@H]3CC[C@@H](O)CC3)n2n1 [Compound 547] | ≤ 100 | ≤ 100 | +++ (“+++” represents a ratio of >100)
10 | COC[C@H](C)Nc1ncc2c(-c3ccnc(N4CCOCC4)c3)cc([C@H]3CC[C@@](C)(O)CC3)n2n1 [Compound 548] | ≤ 100 | ≤ 100 | +++ (“+++” represents a ratio of >100)
11 | COC[C@H](C)Nc1ncc2c(-c3ccnc(N4CCOCC4)c3)cc([C@H]3CC[C@](C)(O)CC3)n2n1 [Compound 549] | ≤ 100 | ≤ 100 | +++ (“+++” represents a ratio of >100)
12 | COCC(C)Nc1ncc2c(-c3ccc4ocnc4c3)cc(C3CCC(O)CC3)n2n1 (stereo not drawn) [Compound 550] | ≤ 100 | ≤ 100 | +++ (“+++” represents a ratio of >100)
13 | COC[C@H](C)Nc1ncc2c(-c3cnn(C4COC4)c3)cc([C@H]3CC[C@@H](O)CC3)n2n1 [Compound 564] | ≤ 100 | ≤ 100 | ++ (“++” represents a ratio of between 10 and 100)

The next lines start with the values.

Row | IC50 (AXL) [nM] | IC50 (MERTK) [nM] | FLT3/Mer ratio (FLT3 IC50/Mer IC50) (MERTK) | Compound
14 | ≤ 100 | ≤ 100 | +++ (“+++” represents a ratio of >100) | COCC(C)Nc1ncc2c(-c3cccc(-c4nnc(C)o4)c3)cc(C3CCC(O)CC3)n2n1 (stereo not drawn) [Compound 551]
15 | ≤ 100 | ≤ 100 | +++ (“+++” represents a ratio of >100) | COCC(C)Nc1ncc2c(-c3ccc4ncoc4c3)cc(C3CCC(O)CC3)n2n1 (stereo not drawn) [Compound 552]
16 | ≤ 100 | ≤ 100 | +++ (“+++” represents a ratio of >100) | COCC(C)Nc1ncc2c(-c3ccc4[nH]cnc4c3)cc(C3CCC(O)CC3)n2n1 (stereo not drawn) [Compound 553]
17 | ≤ 100 | ≤ 100 | +++ (“+++” represents a ratio of >100) | COC[C@H](C)Nc1ncc2c(-c3cnn(C(C)(C)C(=O)N4CC[C@H](O)C4)c3)cc([C@H]3CC[C@H](O)CC3)n2n1 [Compound 554]
18 | ≤ 100 | ≤ 100 | +++ (“+++” represents a ratio of >100) | COC[C@H](C)Nc1ncc2c(-c3cnn(C(C)(C)C(=O)N4CC[C@@H](O)C4)c3)cc([C@H]3CC[C@H](O)CC3)n2n1 [Compound 555]
19 | ≤ 100 | ≤ 100 | +++ (“+++” represents a ratio of >100) | COC[C@H](C)Nc1ncc2c(-c3cnn(C(C)(C)C(=O)N4CCOC(C(C)(C)O)C4)c3)cc([C@H]3CC[C@H](O)CC3)n2n1 (stereo partly drawn) [Compound 556]
20 | ≤ 100 | ≤ 100 | +++ (“+++” represents a ratio of >100) | CC(C)(O)C1CN(c2cc(-c3cc([C@H]4CC[C@H](O)CC4)n4nc(NCCOC(F)F)ncc34)ccn2)CCO1 (stereo partly drawn) [Compound 557]
21 | ≤ 100 | ≤ 100 | +++ (“+++” represents a ratio of >100) | COC[C@H](C)Nc1ncc2c(-c3ccnc(N4CCO[C@H](C(C)(C)O)C4)c3)cc([C@H]3CC[C@H](O)CC3)n2n1 [Compound 558]
22 | ≤ 100 | ≤ 100 | +++ (“+++” represents a ratio of >100) | COCC(C)Nc1ncc2c(-c3ccnc(N4CCOC(C(C)(C)O)C4)c3)cc(C3CCC(O)CC3)n2n1 (stereo not drawn) [Compound 559]
23 | ≤ 100 | ≤ 100 | +++ (“+++” represents a ratio of >100) | COC[C@H](C)Nc1ncc2c(-c3cnn(C(C)(C)C(=O)N4CCOCC4)c3)cc([C@H]3CC[C@](C)(O)CC3)n2n1 [Compound 560]
24 | ≤ 100 | ≤ 100 | +++ (“+++” represents a ratio of >100) | COC[C@H](C)Nc1ncc2c(-c3cnn(C(C)(C)C(=O)N4CCOCC4)c3)cc([C@H]3CC[C@@](C)(O)CC3)n2n1 [Compound 561]
25 | ≤ 100 | ≤ 100 | +++ (“+++” represents a ratio of >100) | COCC(C)Nc1ncc2c(-c3cccc(N4CCOCC4)c3)cc(C3CCC(O)CC3)n2n1 (stereo not drawn) [Compound 562]
26 | ≤ 100 | ≤ 100 | +++ (“+++” represents a ratio of >100) | COC[C@H](C)Nc1ncc2c(-c3cnn(C(C)(C)c4nnc(C5CC5)o4)c3)cc([C@H]3CC[C@H](O)CC3)n2n1 [Compound 563]
27 | ≤ 100 | ≤ 100 | +++ (“+++” represents a ratio of >100) | COC[C@H](C)Nc1ncc2c(-c3ccc(CN4CCN(C)CC4)nc3)cc([C@H]3CC[C@H](O)CC3)n2n1 [Compound 565]
28 | ≤ 100 | ≤ 100 | +++ (“+++” represents a ratio of >100) | COC[C@H](C)Nc1ncc2c(-c3ccnc(C4COC4)c3)cc([C@H]3CC[C@H](O)CC3)n2n1 [Compound 566]
